# Measured values from ChEMBL document CHEMBL3232895, “N-aryl-2,6-dimethylbenzamides, a new generation of tocainide analogues as blockers of skeletal muscle voltage-gated sodium channels” (J Med Chem, 2014).
# Tests used:
# serum albumin [1] = target: T1, serum albumin (Homo sapiens, UniProt P02768); assay: Binding affinity to human serum albumin at 30 uM by HPLC analysis; type: ADME; settings: read-out: PB (converted)
# serum albumin [2] = target: T2, serum albumin (Rattus norvegicus, UniProt P02770); assay: Binding affinity to rat serum albumin at 30 uM by HPLC analysis; type: ADME; settings: read-out: PB (converted)
# serum albumin [3] = target: T1, serum albumin; assay: Binding affinity to human serum albumin assessed as fraction unbound at 30 uM by HPLC analysis; type: ADME
# serum albumin [4] = target: T2, serum albumin; assay: Binding affinity to rat serum albumin assessed as fraction unbound at 30 uM by HPLC analysis; type: ADME
# [5] = Ratio of binding affinity to rat serum albumin assessed as fraction unbound to binding affinity to human serum albumin assessed as fraction unbound; type: ADME; settings: isolated protein
# serum albumin [6] = target: T1, serum albumin; assay: Binding affinity to human serum albumin; type: ADME; settings: read-out: PB (converted)
# Pelophylax lessonae [7] = assay: Inhibition of voltage-gated sodium channel in Rana esculenta ventral branch of semitendinosus muscle assessed as tonic block by measuring reduction of maximal peak sodium transient at 500 uM at 10 Hz stimulation frequency by Hille-Campbell vaseline gap voltage-clamp recording; type: tissue-based
# [8] = Inhibition of voltage-gated sodium channel in Rana esculenta ventral branch of semitendinosus muscle assessed as tonic block by measuring reduction of maximal peak sodium transient at holding potential -100 mV by Hille-Campbell vaseline gap voltage-clamp recording; type: tissue-based, Pelophylax lessonae
# [9] = Inhibition of voltage-gated sodium channel in Rana esculenta ventral branch of semitendinosus muscle assessed as use-dependent block at 2 Hz stimulation frequency by Hille-Campbell vaseline gap voltage-clamp recording; type: tissue-based, Pelophylax lessonae
# Pelophylax lessonae [10] = assay: Ratio of IC50 for tonic block of voltage-gated sodium channel in Rana esculenta ventral branch of semitendinosus muscle to IC50 for use-dependent block of voltage-gated sodium channel in Rana esculenta ventral branch of semitendinosus muscle at 2 Hz frequency; type: tissue-based
# [11] = Inhibition of voltage-gated sodium channel in Rana esculenta ventral branch of semitendinosus muscle assessed as use-dependent block at 10 Hz frequency by Hille-Campbell vaseline gap voltage-clamp recording; type: tissue-based, Pelophylax lessonae
# Pelophylax lessonae [12] = assay: Ratio of IC50 for tonic block of voltage-gated sodium channel in Rana esculenta ventral branch of semitendinosus muscle to IC50 for use-dependent block of voltage-gated sodium channel in Rana esculenta ventral branch of semitendinosus muscle at 10 Hz frequency; type: tissue-based
# [13] = Inhibition of voltage-gated sodium channel in Rana esculenta ventral branch of semitendinosus muscle at -140 mV of holding potential by Hille-Campbell vaseline gap voltage-clamp recording; type: tissue-based, Pelophylax lessonae
# [14] = Inhibition of voltage-gated sodium channel in Rana esculenta ventral branch of semitendinosus muscle at -70 mV of holding potential by Hille-Campbell vaseline gap voltage-clamp recording; type: tissue-based, Pelophylax lessonae
# Pelophylax lessonae [15] = assay: Inhibition of voltage-gated sodium channel in Rana esculenta ventral branch of semitendinosus muscle assessed as tonic block by measuring reduction of maximal peak sodium transient at 300 uM at 10 Hz stimulation frequency by Hille-Campbell vaseline gap voltage-clamp recording; type: tissue-based
# [16] = Inhibition of voltage-gated sodium channel in Rana esculenta ventral branch of semitendinosus muscle assessed as tonic block at 10 Hz stimulation frequency by measuring reduction of maximal peak sodium transient by Hille-Campbell vaseline gap voltage-clamp recording; type: tissue-based, Pelophylax lessonae
# Pelophylax lessonae [17] = assay: Steady state inactivation of voltage-gated sodium channel in Rana esculenta ventral branch of semitendinosus muscle at 100 uM assessed as change in potential at which 50% of sodium channel were inactivated measured at 1000 ms prepulse by Hille-Campbell vaseline gap voltage-clamp recording; type: tissue-based
# T1 sequence (P02768 whole entry): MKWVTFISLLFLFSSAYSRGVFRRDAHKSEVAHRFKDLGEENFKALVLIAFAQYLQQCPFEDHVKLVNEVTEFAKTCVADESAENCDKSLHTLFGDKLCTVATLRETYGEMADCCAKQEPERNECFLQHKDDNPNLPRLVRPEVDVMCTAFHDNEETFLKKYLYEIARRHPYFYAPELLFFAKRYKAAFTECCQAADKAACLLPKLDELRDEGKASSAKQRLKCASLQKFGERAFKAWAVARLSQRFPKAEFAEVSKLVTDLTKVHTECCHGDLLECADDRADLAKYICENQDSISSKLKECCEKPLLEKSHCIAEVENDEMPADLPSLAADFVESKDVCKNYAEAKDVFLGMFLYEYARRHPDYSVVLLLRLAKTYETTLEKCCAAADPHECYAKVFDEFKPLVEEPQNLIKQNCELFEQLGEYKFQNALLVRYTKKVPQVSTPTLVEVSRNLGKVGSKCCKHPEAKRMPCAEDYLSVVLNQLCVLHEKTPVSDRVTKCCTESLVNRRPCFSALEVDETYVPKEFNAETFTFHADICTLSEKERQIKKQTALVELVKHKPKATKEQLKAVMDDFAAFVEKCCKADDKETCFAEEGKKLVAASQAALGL
# T2 sequence (P02770 whole entry): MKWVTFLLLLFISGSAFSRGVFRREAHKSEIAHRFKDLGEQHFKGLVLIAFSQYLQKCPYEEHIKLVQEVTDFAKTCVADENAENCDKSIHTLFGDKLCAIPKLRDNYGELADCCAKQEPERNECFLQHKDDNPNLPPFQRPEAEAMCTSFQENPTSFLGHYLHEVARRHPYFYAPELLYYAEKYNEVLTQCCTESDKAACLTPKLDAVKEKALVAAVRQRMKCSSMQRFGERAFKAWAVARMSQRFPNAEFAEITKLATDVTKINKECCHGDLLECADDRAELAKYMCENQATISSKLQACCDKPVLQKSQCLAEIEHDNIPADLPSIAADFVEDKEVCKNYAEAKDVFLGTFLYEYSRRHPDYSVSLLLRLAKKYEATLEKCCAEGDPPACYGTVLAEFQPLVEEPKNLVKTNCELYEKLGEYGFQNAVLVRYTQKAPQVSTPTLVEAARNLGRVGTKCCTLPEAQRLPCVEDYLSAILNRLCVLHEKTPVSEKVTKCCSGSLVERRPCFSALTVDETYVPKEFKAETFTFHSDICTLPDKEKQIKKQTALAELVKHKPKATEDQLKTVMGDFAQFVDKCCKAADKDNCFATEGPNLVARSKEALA
Structure (SMILES),fraction unbound at 30 µM (serum albumin [1]),fraction unbound at 30 µM (serum albumin [2]),fraction unbound at 30 µM (serum albumin [3]),fraction unbound at 30 µM (serum albumin [4]),Ratio [5],fraction unbound (serum albumin [6]),inhibition (Pelophylax lessonae [7]) [%],IC50 [8] [µM],IC50 [9] [µM],Ratio IC50 (Pelophylax lessonae [10]),IC50 [11] [µM],Ratio IC50 (Pelophylax lessonae [12]),IC50 [13] [µM],IC50 [14] [µM],inhibition (Pelophylax lessonae [15]) [%],pIC50 [16],Activity (Pelophylax lessonae [17]) [mV]
Cc1cccc(C)c1NC(=O)CC(C)NCc1cccc2ccccc12 (racemic),0.033,0.04,0.033,0.04,–,–,–,–,–,–,–,–,–,–,–,–,–
Cc1cccc(C)c1NC(=O)C1CCN(Cc2ccccc2)C1 (centres undefined),0.029,0.064,0.0284,0.0644,2.27,–,–,–,–,–,–,–,–,–,–,–,–
O=C1CN=C(c2ccccc2Cl)c2cc([N+](=O)[O-])ccc2N1 [CLONAZEPAM],0.143,0.117,–,–,–,0.14,–,–,–,–,–,–,–,–,–,–,–
Cc1cccc(C)c1NC(=O)CC(C)NCc1ccccc1 (racemic),0.047,0.121,0.0474,0.122,–,–,–,–,–,–,–,–,–,–,–,–,–
Cc1cccc(C)c1NC(=O)C(C)N (racemic) [TOCAINIDE],0.746,0.64,0.746,0.64,0.86,–,42.6,523,350,1.5,248,2.1,985,254,–,–,–
Cc1cccc(C)c1NC(=O)CC(C)N (racemic),–,–,–,–,–,–,–,420,81.2,5.2,48.8,8.6,603,54,35.6,4.31,4.8
